In paper PMC9435431, “Novel chemical entities inhibiting Mycobacterium tuberculosis growth identified by phenotypic high-throughput screening” (Scientific Reports, 2022):
Converted amounts (≈) assume the structure as drawn. Like-named read-outs stand apart in the source and are kept apart here.

Assays:
in vitro [1] = type: in vitro ADME, human; conditions: for microsomal clearance / stability (in words): human microsomes; for CLint scaled at 0.5 µM: human, microsomes, pH 7.4, human Clint
Procedure: Compounds (0.5 µM) were incubated with 0.25 mg/mL liver microsomal proteins at pH 7.4 at 37 °C. Reactions were initiated with […] and samples taken at 0, 5, 10, 15, 20 and 30 min. The reaction was stopped by addition of 95% ACN/5% MeOH containing an internal standard. Samples were combined in compound groups of six pre-sorted by mono molecular weight and analyzed by LC/MS/MS. The peak area ratios (analyte peak area/IS peak area) were converted to % remaining using the area ratio at time 0 as 100%. The. half-life (T ½) and intrinsic clearance (mCLint) were calculated.

[2] = tested on: wild-type M. tuberculosis; assay: microbe, parasite or virus in culture; type: cell-based, Mycobacterium tuberculosis; conditions: for MIC / IC90: Mycobacterium tuberculosis
M. tuberculosis = assay: microbe, parasite or virus in culture; type: cell-based; conditions: Mycobacterium tuberculosis, read-out: MIC on solid medium
in vitro [3] = type: cell-based; conditions: human
Procedure: HepG2 cells were seeded at 2000 cells per well in 384-well, black, clear bottom PDL coated plates in MEM medium supplemented with 10% FBS, 2 mM L-glutamine, 1 mM sodium pyruvate and incubated overnight at 37C, 5% CO2. Compounds were added and plates incubated for 72 h. Cell viability was measured using the CyQUANT® reagent and imaging on a ViewLux™ ultraHTS Microplate Imager. The IC20 and IC50 were calculated from dose response curves.

M. tuberculosis H37Rv = assay: microbe, parasite or virus in culture; type: cell-based; conditions: Mycobacterium tuberculosis, 120 h
[4] = Table 5, read-out: Wild-type MIC

SMILES | microsomal clearance / stability (in words) (in vitro [1]) | CLint scaled at 0.5 µM (in vitro [1]) | MIC ([2]; 120 h, read-out: MIC) | IC20 at 72 h (in vitro [3]) | inhibition at 20 µM (M. tuberculosis H37Rv; read-out: % Inhibition Run 1) | inhibition at 20 µM (M. tuberculosis H37Rv; read-out: % Inhibition Run 2) | MIC ([2]; read-out: MTB MIC) | also measured
O=C(NCCc1cccc(Br)c1)C1(c2ccccc2F)CCC1 [PCB-20, N-(3-bromophenethyl)-1-(2-fluorophenyl)cyclobutane-1-carboxamide] | very poor microsomal stability | 263 L/h/kg | 5.5 ± 2.1 µM (≈ 2.07 µg/mL) |  |  |  |  | 
O=C(NCCc1cccc(Br)c1)C1(c2ccccc2Br)CCC1 [PCB-21, N-(3-bromophenethyl)-1-(2-bromophenyl)cyclobutane-1-carboxamide] |  | 813 L/h/kg | 2 ± 0.5 µM (≈ 0.874 µg/mL) |  |  |  |  | MIC (M. tuberculosis): 1.25 µM (≈ 0.546 µg/mL); MIC [2, 4]: 2 µM (≈ 0.874 µg/mL)
O=C(NCCc1cccc(Br)c1)C1(c2ccccc2C(F)(F)F)CCC1 [PCB-22, N-(3-bromophenethyl)-1-(2-(trifluoromethyl)phenyl)cyclobutane-1-carboxamide] |  | 975 L/h/kg | 5.7 ± 2.8 µM (≈ 2.43 µg/mL) |  |  |  |  | 
Cc1ccccc1C1(C(=O)NCCc2cccc(Br)c2)CCC1 [PCB-23, N-(3-bromophenethyl)-1-(o-tolyl)cyclobutane-1-carboxamide] |  | 391 L/h/kg | 1.3 ± 0.5 µM (≈ 0.484 µg/mL) |  |  |  |  | MIC [2, 4]: 1.3 µM (≈ 0.484 µg/mL); MIC ([2]; read-out: MIC): 1.3 µM (≈ 0.484 µg/mL)
O=C(NCCc1cccc(Br)c1)C1(c2ccccc2)CC(F)(F)C1 [PCB-24, N-(3-bromophenethyl)-3,3-difluoro-1-phenylcyclobutane-1-carboxamide] | poor microsomal stability | 263 L/h/kg | 15 ± 3.7 µM (≈ 5.91 µg/mL) |  |  |  |  | MIC ([2]; read-out: MIC): 15 µM (≈ 5.91 µg/mL)
O=C(NCCc1cccc(Br)c1)C1(c2ccccc2)COC1 [PCB-25, N-(3-bromophenethyl)-3-phenyloxetane-3-carboxamide] | some improvement in clearance | 20 L/h/kg | 12 ± 2.8 µM (≈ 4.32 µg/mL) |  |  |  |  | MIC ([2]; read-out: MIC): 12 µM (≈ 4.32 µg/mL)
COc1ccc(CCNC(=O)C2(c3ccc(F)cc3)CCC2)cc1Br [PCB-26, N-(3-bromo-4-methoxyphenethyl)-1-(4-fluorophenyl)cyclobutane-1-carboxamide] | at the expense of clearance | 149 L/h/kg | 2.8 ± 0.1 µM (≈ 1.14 µg/mL) |  |  |  |  | MIC ([2]; read-out: MIC): 2.8 µM (≈ 1.14 µg/mL)
COc1ccc(CCNC(=O)C2(c3ccccc3Cl)CCC2)cc1-c1ccccc1 [PCB-27, 1-(2-chlorophenyl)-N-(2-(6-methoxy-[1,1'-biphenyl]-3-yl)ethyl)cyclobutane-1-carboxamide] | much higher clearance | 1680 L/h/kg | 3.6 ± 1.3 µM (≈ 1.51 µg/mL) |  |  |  |  | 
O=C(NCCc1cccc(C(F)(F)F)c1)C1(c2ccccc2)COC1 [PCB-28, 3-phenyl-N-(3-(trifluoromethyl)phenethyl)oxetane-3-carboxamide] | improved clearance | 13.9 L/h/kg | 9.1 ± 0.8 µM (≈ 3.18 µg/mL) |  |  |  |  | anti-tubercular activity (in words) [2]: loss in activity
Cc1ccccc1C1(C(=O)NCCc2cccc(C(F)(F)F)c2)CCC1 [PCB-29, 1-(o-tolyl)-N-(3-(trifluoromethyl)phenethyl)cyclobutane-1-carboxamide] | increase in clearance | 883 L/h/kg | 0.45 ± 0.01 µM (≈ 0.163 µg/mL) |  |  |  |  | MIC ([2]; read-out: MIC): 0.45 µM (≈ 0.163 µg/mL)
O=C(NCCc1cccc(C(F)(F)F)c1)C1(c2ccc(F)cc2)CCC1 [PCB-30, 1-(4-fluorophenyl)-N-(3-(trifluoromethyl)phenethyl)cyclobutane-1-carboxamide] | significantly improved clearance | 121 L/h/kg | 0.99 ± 0.3 µM (≈ 0.362 µg/mL) |  |  |  |  | anti-tubercular activity (in words) [2]: slight reduction in activity
C=CCc1c(C)nc(-c2ccccn2)nc1O [PDPO-1] |  |  |  | 2.8 µM | 99% | 96% | 23 µM (≈ 5.23 µg/mL) | 
Cc1nc2ccccn2c1-c1ccn(Cc2ccccc2)n1 [PPP-1] |  |  |  | 4.3 µM | 100% | 98% | 38 µM (≈ 11 µg/mL) | 
CC(C)c1ccc(-n2nnn(C(=O)N(C)C3CCOCC3)c2=O)cc1Cl [PTZ-3] |  |  |  |  | 96% | 6% | 5.2 µM (≈ 1.98 µg/mL) | IC20 (in vitro [3]; concentration for 20% inhibition of HepG2 cells, 72 h, n = 2): 26 µM
Cc1ccc(-c2nnc(C)c(N3CCCC3)n2)cc1 [PYT] |  |  |  | 23 µM | 100% | 98% | 11 µM (≈ 2.8 µg/mL) | IC90 [2]: 11 µM
CN(Cc1cn2c3ccccc3n(C)c2n1)C12CC3CC(CC(C3)C1)C2 [PZI] |  |  |  | 15 µM | 98% | 98% | 9.3 µM (≈ 3.24 µg/mL) | 
Cc1cc(NC2CCCCC2)nc(-n2nc(C)cc2C)n1 [PZP-3] |  |  |  | 47 µM | 98% | 98% | 4.5 µM (≈ 1.28 µg/mL) | IC90 [2]: 4.5 µM
CC(=O)n1nccc1-c1sc(-c2cccs2)nc1C [TPT] |  |  |  | > 80 µM | 99% | 99% | 7.1 µM (≈ 2.05 µg/mL) | IC90 [2]: 7.1 µM
CCOC(=O)c1oc2c(c1C)-c1nc(C)sc1CC2 [TZF] |  |  |  | > 80 µM | 99% | 99% | 18 µM (≈ 4.99 µg/mL) | 
